Test results from patent publication US10696692B2, “Amido-benzyl sulfone and sulfoxide derivates” (Forma TM, LLC, priority 2012, dated 2020).
Where two headings read alike, the source gives them in different places.

Experiments:
[1] = target: NAMPT (Homo sapiens (Human), UniProt P43490); test: Assay 1: Biochemical Inhibition Assay (NAMPT enzymatic reaction, NMN quantified by mass spectrometry); conditions: read-out: Biochemical (IC50);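 note: recombinant His-tagged human NAMPT preincubated with compound 15 min, then reacted 30 min at rt with 1 µM NAM, 100 µM PRPP, 2.5 mM ATP, NMN product read by RapidFire MS, normalized to L-Cystathionine internal standard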
NAMPT, sequence (P43490 whole entry): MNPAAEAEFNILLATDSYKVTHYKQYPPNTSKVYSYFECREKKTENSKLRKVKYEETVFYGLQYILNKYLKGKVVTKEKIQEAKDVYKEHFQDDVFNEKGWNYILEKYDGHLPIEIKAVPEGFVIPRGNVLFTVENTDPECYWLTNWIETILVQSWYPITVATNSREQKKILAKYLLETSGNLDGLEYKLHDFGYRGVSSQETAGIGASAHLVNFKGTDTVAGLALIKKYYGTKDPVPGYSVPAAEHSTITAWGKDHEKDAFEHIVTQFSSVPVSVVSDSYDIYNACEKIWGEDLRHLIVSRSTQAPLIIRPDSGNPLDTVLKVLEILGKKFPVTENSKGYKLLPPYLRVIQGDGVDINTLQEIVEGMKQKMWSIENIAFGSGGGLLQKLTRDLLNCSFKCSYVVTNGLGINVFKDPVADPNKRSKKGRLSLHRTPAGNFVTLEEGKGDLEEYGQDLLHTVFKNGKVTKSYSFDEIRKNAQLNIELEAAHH

[2] = tested on: A2780 cells; test: Assay 2: In-Vitro Cell Proliferation Assay (A2780 cells, SRB readout, 72 hours); assay type: cell-based; conditions: A2780 cells, 72 hours, SRB, read-out: Cell Proliferation (IC50);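 note: viable cells counted via sulforhodamine B staining, absorbance at 570 nm, after 72 h exposure at 37 °C, DMSO 0.1% as control, media-only background subtracted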

Row | SMILES | IC50 [1] | IC50 ([2]; Homo sapiens, A2780, 72 h) | IC50 [2]
1 | O=C(NCc1ccc(S(=O)(=O)N2CCC[C@H](O)C2)cc1)c1cc2cnccc2[nH]1 [Example 52, 1H-Pyrrolo[3,2-c]pyridine-2-carboxylic acid 4-((S)-3-hydroxy-piperidine-1-sulfonyl)-benzylamide] | 27.6 nM | 18.6 nM | 
2 | O=C(NCc1ccc(S(=O)(=O)N2CCC[C@@H](O)C2)cc1)c1ccc2nccn2c1 [Example 53, Imidazo[1,2-a]pyridine-6-carboxylic acid 4-((R)-3-hydroxy-piperidine-1-sulfonyl)-benzylamide] | 16.9 nM | 22.6 nM | 
3 | O=C(NCc1ccc(S(=O)(=O)N2CCC[C@H](O)C2)cc1)c1ccc2nccn2c1 [Example 54, Imidazo[1,2-a]pyridine-6-carboxylic acid 4-((S)-3-hydroxy-piperidine-1-sulfonyl)-benzylamide] | 15.6 nM | 11.4 nM | 
4 | CC(C)(C)OC(=O)NC1CCN(S(=O)(=O)c2ccc(CNC(=O)c3ccc4nccn4c3)cc2)CC1 [Example 55, [1-(4-{[(lmodazo[1,2-a]pyridine-6-carbonyl)-amino]-methyl}-benzenesulfonyl)-piperidin-4-yl]-carbamic acid tert-butyl ester] | 7.7 nM | 4.3 nM | 
5 | N#CCCNC1CCN(S(=O)(=O)c2ccc(CNC(=O)c3cnc4[nH]ncc4c3)cc2)CC1 [Example 57, 1H-Pyrazolo[3,4-b]pyridine-5-carboxylic acid 4-[4-(2-cyano-ethylamino)-piperidine-1-sulfonyl]-benzylamide] | 64.8 nM | 55.5 nM | 
6 | O=C(NCc1ccc(S(=O)(=O)N2CCCCC2)cc1)c1ccn2nccc2n1 [Example 58, Pyrazolo[1,5-a]pyrimidine-5-carboxylic acid 4-(piperidine-1-sulfonyl)-benzylamide] | 240 nM | 2000 nM | 
7 | C[C@@H]1CN(S(=O)(=O)c2ccc(CNC(=O)c3ccc4nccn4c3)cc2)C[C@H](C)N1 [Example 60, cis-Imidazo[1,2-a]pyridine-6-carboxylic acid 4-((3R,5S)-3,5-dimethyl-piperazine-1-sulfonyl)-benzylamide] | 29.4 nM | 15.2 nM | 
8 | C[C@@H]1CN(S(=O)(=O)c2ccc(CNC(=O)c3cc4ccncc4o3)cc2)C[C@H](C)N1 [Example 61, cis-Furo[2,3-c]pyridine-2-carboxylic acid 4-((3R,5S)-3,5-dimethyl-piperazine-1-sulfonyl)-benzylamide] | 21.5 nM | 23.3 nM | 
9 | O=C(NCc1ccc(S(=O)(=O)C2CCN(CC(F)(F)F)CC2)cc1)c1cnc2nccn2c1 [Example 64, Imidazo[1,2-a]pyrimidine-6-carboxylic acid 4-[1-(2,2,2-trifluoro-ethyl)-piperidine-4-sulfonyl]-benzylamide] | 3.7 nM |  | 8.8 nM
10 | O=C(NCc1ccc(S(=O)(=O)C2CCN(CC(F)(F)F)CC2)cc1)c1ccc2nccn2c1 [Example 65, Imidazo[1,2-a]pyridine-6-carboxylic acid 4-[1-(2,2,2-trifluoro-ethyl)-piperidine-4-sulfonyl]-benzylamide] | 12.4 nM |  | 2.1 nM
11 | O=C(NCc1ccc(S(=O)(=O)C2CCN(CC(F)(F)F)CC2)cc1)c1cc2cnccc2[nH]1 [Example 66, 1H-Pyrrolo[3,2-c]pyridine-2-carboxylic acid 4-[1-(2,2,2-trifluoro-ethyl)-piperidine-4-sulfonyl]-benzylamide] | 15.4 nM |  | 3.2 nM
12 | O=C(NCc1ccc(S(=O)(=O)C2CCN(CC(F)(F)F)CC2)cc1)c1cc2ccncc2o1 [Example 67, Furo[2,3-c]pyridine-2-carboxylic acid 4-[1-(2,2,2-trifluoro-ethyl)-piperidine-4-sulfonyl]-benzylamide] | 13.5 nM |  | 5.4 nM
13 | O=C(NCc1ccc(S(=O)(=O)C2CCN(C3CCOCC3)CC2)cc1)c1ccc2nccn2c1 [Example 69, Imidazo[1,2-a]pyridine-6-carboxylic acid 4-[1-(tetrahydro-pyran-4-yl)-piperidine-4-sulfonyl]-benzylamide] | 13.6 nM |  | 4.7 nM
14 | O=C(NCc1ccc(S(=O)(=O)N2C[C@@H]3CC(F)(F)C[C@@H]3C2)cc1)c1ccc2nccn2c1 [Example 70, cis-Imidazo[1,2-a]pyridine-6-carboxylic acid 4-((3aR,6aS)-5,5-difluoro-hexahydro-cyclopenta[c]pyrrole-2-sulfonyl)-benzylamide] | 6.4 nM | 8 nM | 
15 | O=C(NCc1ccc(S(=O)(=O)N2CC3CCOC3C2)cc1)c1ccc2nccn2c1 (stereo not shown) [Example 72, Imidazo[1,2-a]pyridine-6-carboxylic acid 4-(hexahydro-furo[2,3-c]pyrrole-5-sulfonyl)-benzylamide] | 14.3 nM | 5.7 nM | 
16 | O=C(NCc1ccc(S(=O)(=O)[C@H]2CCOC2)cc1)c1cnc2nccn2c1 [Example 76, Imidazo[1,2-a]pyrimidine-6-carboxylic acid 4-[(S)-(tetrahydro-furan-3-yl)sulfonyl]-benzylamide] | 9.8 nM |  | 423 nM
17 | O=C(NCc1ccc(S(=O)(=O)C2CCN(C3CCOCC3)CC2)cc1)c1cnc2nccn2c1 [Example 78, Imidazo[1,2-a]pyrimidine-6-carboxylic acid 4-[1-(tetrahydro-pyran-4-yl)-piperidine-4-sulfonyl]-benzylamide] | 4 nM |  | 47.9 nM
18 | O=C(NCc1ccc(S(=O)(=O)[C@@H]2CCOC2)cc1)c1cnc2nccn2c1 [Example 80, Imidazo[1,2-a]pyrimidine-6-carboxylic acid 4-[(R)-(tetrahydro-furan-3-yl)sulfonyl]-benzylamide] | 8.9 nM |  | 457 nM
19 | O=C(NCc1ccc(S(=O)(=O)N2CCC[C@@H](O)C2)cc1)c1cc2ccncc2o1 [Example 82, Furo[2,3-c]pyridine-2-carboxylic acid 4-((R)-3-hydroxy-piperidine-1-sulfonyl)-benzylamide] | 26.1 nM |  | 34.8 nM
20 | C[C@@H]1CN(S(=O)(=O)c2ccc(CNC(=O)c3ccc4nccn4c3)cc2)C[C@H](C)N1CC(F)(F)F [Example 83, Imidazo[1,2-a]pyridine-6-carboxylic acid 4-[(3R,5S)-3,5-dimethyl-4-(2,2,2-trifluoro-ethyl)-piperazine-1-sulfonyl]-benzylamide] | 7.7 nM | 2.6 nM | 
21 | O=C(NCc1ccc(S(=O)(=O)N2C[C@@H]3C[C@H]2CO3)cc1)c1ccc2nccn2c1 [Example 84, Imidazo[1,2-a]pyridine-6-carboxylic acid 4-[(1S,4S)-(2-oxa-5-aza-bicyclo[2.2.1]hept-5-yl)sulfonyl]-benzylamide] | 37.4 nM | 16.6 nM | 

Other lines, results leading:

Row | IC50 [1] | IC50 ([2]; Homo sapiens, A2780, 72 h) | IC50 [2] | SMILES
22 | 5.1 nM |  | 527 nM | CC(=O)N1CCC(S(=O)(=O)c2ccc(CNC(=O)c3cnc4nccn4c3)cc2)CC1 [Example 86, Imidazo[1,2-a]pyrimidine-6-carboxylic acid 4-(1-acetyl-piperidine-4-sulfonyl)-benzylamide]
23 | 227 nM |  | 1800 nM | O=C(NCc1ccc(S(=O)(=O)[C@@H]2CCOC2)cc1)c1cnc2[nH]ncc2c1 [Example 90, 1H-Pyrazolo[3,4-b]pyridine-5-carboxylic acid 4-[(R)-(tetrahydro-furan-3-yl)sulfonyl]-benzylamide]
24 | 29.4 nM | 7.5 nM |  | O=C(NCc1ccc(S(=O)(=O)N2CCN(C3COC3)CC2)cc1)c1ccc2nccn2c1 [Example 92, Imidazo[1,2-a]pyridine-6-carboxylic acid 4-(4-oxetan-3-yl-piperazine-1-sulfonyl)-benzylamide]
25 | 22.4 nM | 13 nM |  | CC(=O)N1CCN(S(=O)(=O)c2ccc(CNC(=O)c3ccc4nccn4c3)cc2)CC1 [Example 93, Imidazo[1,2-a]pyridine-6-carboxylic acid 4-(4-acetyl-piperazine-1-sulfonyl)-benzylamide]
26 | 75.9 nM | 29 nM |  | O=C(NCc1ccc(S(=O)(=O)N2CCN(CCO)CC2)cc1)c1ccc2nccn2c1 [Example 94, Imidazo[1,2-a]pyridine-6-carboxylic acid 4-[4-(2-hydroxy-ethyl)-piperazine-1-sulfonyl]-benzylamide]
27 | 41 nM | 33.5 nM |  | N#CC1CCN(S(=O)(=O)c2ccc(CNC(=O)c3ccc4nccn4c3)cc2)CC1 [Example 95, Imidazo[1,2-a]pyridine-6-carboxylic acid 4-(4-cyano-piperidine-1-sulfonyl)-benzylamide]
28 | 24.7 nM | 9.4 nM |  | O=C(NCc1ccc(S(=O)(=O)N2CCC(CO)CC2)cc1)c1ccc2nccn2c1 [Example 96, Imidazo[1,2-a]pyridine-6-carboxylic acid 4-(4-hydroxymethyl-piperidine-1-sulfonyl)-benzylamide]
29 | 14.4 nM | 5.4 nM |  | O=C(NCc1ccc(S(=O)(=O)N2CCC(N3CCCC3)CC2)cc1)c1ccc2nccn2c1 [Example 97, Imidazo[1,2-a]pyridine-6-carboxylic acid 4-(4-pyrrolidin-1-yl-piperidine-1-sulfonyl)-benzylamide]
30 | 46.1 nM | 10.1 nM |  | COCCN1CCN(S(=O)(=O)c2ccc(CNC(=O)c3ccc4nccn4c3)cc2)CC1 [Example 98, Imidazo[1,2-a]pyridine-6-carboxylic acid 4-[4-(2-methoxy-ethyl)-piperazine-1-sulfonyl]-benzylamide]
31 | 15.8 nM | 7.7 nM |  | O=C(NCc1ccc(S(=O)(=O)N2CCC(F)(F)C2)cc1)c1ccc2nccn2c1 [Example 99, Imidazo[1,2-a]pyridine-6-carboxylic acid 4-(3,3-difluoro-pyrrolidine-1-sulfonyl)-benzylamide]
32 | 25.7 nM | 25.4 nM |  | CC(=O)N1CCCN(S(=O)(=O)c2ccc(CNC(=O)c3ccc4nccn4c3)cc2)CC1 [Example 100, Imidazo[1,2-a]pyridine-6-carboxylic acid 4-(4-acetyl-[1,4]diazepane-1-suIfonyl)-benzylamide]
